The text below walks through data of the OligoGym collection.

Values joined by “and” are separate entries in the source; they are usually repeats but may differ in a detail not shown here. Identical values can stand only once. HELM strings list units from the 5' end as sugar, base in round brackets, then linkage (d deoxyribose, r ribose, m 2'-O-methyl, p phosphodiester). Strings are as the collection lists them, not checked against the first reports. ss, as = sense and antisense strand; [lna] = locked nucleic acid (LNA); [hna] = hexitol nucleic acid; [fl2r] = 2'-fluoro
Also: test system not given here.

For the data set the following is noted: siRNA.
The substance “RNA1{r(C)p.r(U)p.r(U)p.r(A)p.r(C)p.r(G)p.r(C)p.r(U)p.r(G)p.r(A)p.r(G)p.r(U)p.r(A)p.r(C)p.r(U)p.r(U)p.r(C)p.r(G)p.r(A)p.r(T)p.r(T)}|RNA2{r(U)p.r(C)p.r(G)p.r(A)p.r(A)p.[lna](G)p.r(U)p.r(A)p.r(C)p.r(U)p.r(C)p.r(A)p.r(G)p.r(C)p.r(G)p.r(U)p.r(A)p.r(A)p.r(G)p.r(T)p.r(T)}$$$RNA1{StrandType:ss}|RNA2{StrandType:as}$” yielded a target mRNA knockdown of 82%.

In turn, “RNA1{r(A)p.r(A)p.r(C)p.r(U)p.r(C)p.m(U)p.r(A)p.r(C)p.r(U)p.r(G)p.r(U)p.r(G)p.r(G)p.r(A)p.r(G)p.r(U)p.r(C)p.r(G)p.r(G)p.r(T)p.r(T)}|RNA2{r(C)p.r(C)p.r(G)p.r(A)p.r(C)p.r(U)p.r(C)p.r(C)p.r(A)p.r(C)p.r(A)p.r(G)p.m(U)p.r(A)p.r(G)p.r(A)p.r(G)p.r(U)p.r(U)p.r(T)p.r(T)}$$$RNA1{StrandType:ss}|RNA2{StrandType:as}$” returned a target mRNA knockdown of 69%.

Regarding “RNA1{[fl2r](A)p.r(A)p.[fl2r](A)p.r(C)p.[fl2r](C)p.r(A)p.[fl2r](G)p.r(G)p.[fl2r](A)p.r(A)p.[fl2r](G)p.r(G)p.[fl2r](G)p.r(G)p.[fl2r](A)p.r(A)p.[fl2r](A)p.r(U)p.[fl2r](C)p.r(T)p.r(T)}|RNA2{r(G)p.[fl2r](A)p.r(U)p.r(U)p.r(U)p.r(C)p.r(C)p.r(C)p.r(C)p.r(U)p.r(U)p.r(C)p.r(C)p.r(U)p.r(G)p.r(G)p.r(U)p.r(U)p.r(U)p.r(T)p.r(T)}$$$RNA1{StrandType:ss}|RNA2{StrandType:as}$”, the target mRNA knockdown was determined as 42%.

“RNA1{r(U)p.m(U)p.r(A)p.r(A)p.r(A)p.r(G)p.r(G)p.r(G)p.r(C)p.r(G)p.r(A)p.r(G)p.r(A)p.r(A)p.r(G)p.r(A)p.r(C)p.r(C)p.r(G)p.r(T)p.r(T)}|RNA2{r(C)p.r(G)p.r(G)p.r(U)p.r(C)p.r(U)p.r(U)p.r(C)p.r(U)p.r(C)p.r(G)p.r(C)p.r(C)p.r(C)p.r(U)p.r(U)p.m(U)p.r(A)p.r(A)p.r(T)p.r(T)}$$$RNA1{StrandType:ss}|RNA2{StrandType:as}$” returned a target mRNA knockdown of 87%.

As for “RNA1{m(A)p.r(A)p.m(G)p.r(G)p.m(A)p.r(G)p.m(A)p.r(U)p.m(C)p.r(A)p.m(A)p.r(C)p.m(A)p.r(U)p.m(U)p.r(U)p.m(U)p.r(C)p.m(A)p.r(T)p.r(T)}|RNA2{r(U)p.m(G)p.r(A)p.m(A)p.r(A)p.m(A)p.r(U)p.m(G)p.r(U)p.m(U)p.r(G)p.m(A)p.r(U)p.m(C)p.r(U)p.m(C)p.r(C)p.m(U)p.r(U)p.r(T)p.r(T)}$$$RNA1{StrandType:ss}|RNA2{StrandType:as}$”, the target mRNA knockdown amounted to 65%.

As for “RNA1{r(G)p.r(G)p.r(U)p.r(C)p.r(A)p.r(U)p.r(C)p.r(C)p.r(A)p.r(U)p.r(G)p.r(A)p.r(C)p.r(A)p.r(A)p.r(C)p.r(U)p.r(U)p.r(U)p.d(T)p.d(T)}|RNA2{r(A)p.r(A)p.r(A)p.r(G)p.r(U)p.r(U)p.r(G)p.r(U)p.r(C)p.r(A)p.r(U)p.r(G)p.r(G)p.r(A)p.r(U)p.r(G)p.r(A)p.r(C)p.r(C)p.d(T)p.d(T)}$$$RNA1{StrandType:ss}|RNA2{StrandType:as}$”, the target mRNA knockdown was 80% and 94%.

“RNA1{r(A)p.r(G)p.r(A)p.r(A)p.r(A)p.r(C)p.r(G)p.r(C)p.r(A)p.r(G)p.m(U)p.r(A)p.r(A)p.r(U)p.r(C)p.r(C)p.r(G)p.r(G)p.r(A)p.r(T)p.r(T)}|RNA2{r(U)p.r(C)p.r(C)p.r(G)p.r(G)p.r(A)p.r(U)p.r(U)p.r(A)p.r(C)p.m(U)p.r(G)p.r(C)p.r(G)p.r(U)p.r(U)p.r(U)p.r(C)p.r(U)p.r(T)p.r(T)}$$$RNA1{StrandType:ss}|RNA2{StrandType:as}$” showed a target mRNA knockdown of 82%.

For the substance “RNA1{m(A)p.r(A)p.m(A)p.r(C)p.m(G)p.r(A)p.m(G)p.r(A)p.m(G)p.r(A)p.m(G)p.r(C)p.m(C)p.r(C)p.m(A)p.r(C)p.m(C)p.r(U)p.m(U)p.r(T)p.r(T)}|RNA2{r(A)p.r(A)p.r(G)p.r(G)p.r(U)p.r(G)p.r(G)p.r(G)p.m(C)p.r(U)p.m(C)p.r(U)p.m(C)p.r(U)p.m(C)p.r(G)p.r(U)p.r(U)p.r(U)p.r(T)p.r(T)}$$$RNA1{StrandType:ss}|RNA2{StrandType:as}$”, the target mRNA knockdown was determined as 37%.

Regarding “RNA1{m(A)p.r(U)p.m(C)p.r(A)p.m(C)p.r(A)p.m(A)p.r(A)p.m(C)p.r(C)p.m(C)p.r(C)p.m(U)p.r(A)p.m(G)p.r(A)p.m(G)p.r(G)p.m(G)p.r(T)p.r(T)}|RNA2{r(C)p.r(C)p.r(C)p.r(U)p.r(C)p.r(U)p.r(A)p.r(G)p.r(G)p.r(G)p.r(G)p.r(U)p.r(U)p.r(U)p.r(G)p.r(U)p.r(G)p.r(A)p.r(U)p.r(T)p.r(T)}$$$RNA1{StrandType:ss}|RNA2{StrandType:as}$”, the target mRNA knockdown is 9%.

For the substance “RNA1{r(A)p.r(G)p.r(A)p.r(A)p.r(G)p.[fl2r](U)p.r(A)p.r(C)p.r(C)p.r(A)p.r(G)p.r(G)p.r(A)p.r(G)p.r(G)p.r(C)p.r(G)p.r(U)p.r(U)p.r(T)p.r(T)}|RNA2{r(A)p.r(A)p.r(C)p.r(G)p.r(C)p.r(C)p.r(U)p.r(C)p.r(C)p.[fl2r](U)p.r(G)p.r(G)p.r(U)p.r(A)p.r(C)p.r(U)p.r(U)p.r(C)p.r(U)p.r(T)p.r(T)}$$$RNA1{StrandType:ss}|RNA2{StrandType:as}$”, the target mRNA knockdown stood at 60%.

As to “RNA1{r(A)p.r(A)p.r(C)p.r(C)p.r(C)p.r(A)p.r(A)p.r(A)p.r(G)p.r(G)p.r(G)p.r(G)p.r(A)p.r(G)p.r(U)p.m(U)p.r(G)p.r(C)p.r(U)p.r(T)p.r(T)}|RNA2{r(A)p.r(G)p.r(C)p.r(A)p.r(A)p.r(C)p.r(U)p.r(C)p.r(C)p.r(C)p.r(C)p.r(U)p.r(U)p.m(U)p.r(G)p.r(G)p.r(G)p.r(U)p.r(U)p.r(T)p.r(T)}$$$RNA1{StrandType:ss}|RNA2{StrandType:as}$”, the target mRNA knockdown was 83%.

On to “RNA1{m(A)p.m(A)p.m(G)p.r(G)p.r(A)p.r(G)p.r(A)p.r(U)p.r(C)p.r(A)p.r(A)p.r(C)p.r(A)p.r(U)p.r(U)p.r(U)p.m(U)p.m(C)p.m(A)p.r(T)p.r(T)}|RNA2{m(U)p.m(G)p.m(A)p.r(A)p.r(A)p.r(A)p.r(U)p.r(G)p.r(U)p.r(U)p.r(G)p.r(A)p.r(U)p.r(C)p.r(U)p.r(C)p.m(C)p.m(U)p.m(U)p.r(T)p.r(T)}$$$RNA1{StrandType:ss}|RNA2{StrandType:as}$”, for which the target mRNA knockdown was determined as 76%.

In the case of “RNA1{m(G)p.r(C)p.m(G)p.m(A)p.m(G)p.r(C)p.m(A)p.m(G)p.m(A)p.m(G)p.m(A)p.m(A)p.r(U)p.r(C)p.r(U)p.m(A)p.r(C)p.r(C)p.r(U)p.r(T)p.r(T)}|RNA2{r(A)p.r(G)p.r(G)p.r(U)p.r(A)p.r(G)p.r(A)p.r(U)p.r(U)p.r(C)p.r(U)p.r(C)p.r(U)p.r(G)p.r(C)p.r(U)p.r(C)p.r(G)p.r(C)p.r(T)p.r(T)}$$$RNA1{StrandType:ss}|RNA2{StrandType:as}$”, the target mRNA knockdown was determined as 65%.

For “RNA1{r(C)p.r(G)p.r(G)p.r(G)p.[fl2r](U)p.[fl2r](A)p.r(C)p.r(G)p.r(A)p.r(G)p.r(C)p.r(C)p.r(G)p.r(G)p.r(A)p.r(A)p.r(C)p.r(C)p.r(U)p.r(T)p.r(T)}|RNA2{r(A)p.r(G)p.r(G)p.r(U)p.r(U)p.r(C)p.r(C)p.r(G)p.r(G)p.r(C)p.r(U)p.r(C)p.r(G)p.[fl2r](U)p.r(A)p.r(C)p.r(C)p.r(C)p.r(G)p.r(T)p.r(T)}$$$RNA1{StrandType:ss}|RNA2{StrandType:as}$”, the target mRNA knockdown amounted to 68%.

As to “RNA1{[fl2r](G)p.r(C)p.[fl2r](U)p.r(G)p.[fl2r](U)p.r(A)p.[fl2r](A)p.r(C)p.[fl2r](C)p.r(U)p.[fl2r](C)p.r(G)p.[fl2r](G)p.r(A)p.[fl2r](G)p.r(A)p.[fl2r](G)p.r(U)p.r(U)p.r(T)p.r(T)}|RNA2{r(A)p.r(A)p.r(C)p.r(U)p.r(C)p.r(U)p.r(C)p.r(C)p.r(G)p.r(A)p.r(G)p.r(G)p.r(U)p.r(U)p.r(A)p.r(C)p.r(A)p.r(G)p.r(C)p.r(T)p.r(T)}$$$RNA1{StrandType:ss}|RNA2{StrandType:as}$”, the target mRNA knockdown turned out to be 51%.

In turn, “RNA1{m(A)p.r(A)p.m(C)p.r(U)p.m(U)p.r(C)p.m(U)p.r(G)p.m(G)p.r(G)p.m(A)p.r(G)p.m(C)p.r(C)p.m(U)p.r(C)p.m(C)p.r(A)p.m(A)p.r(T)p.r(T)}|RNA2{r(U)p.r(U)p.r(G)p.r(G)p.m(A)p.r(G)p.r(G)p.r(C)p.r(U)p.r(C)p.r(C)p.r(C)p.m(A)p.r(G)p.m(A)p.m(A)p.r(G)p.r(U)p.r(U)p.r(T)p.r(T)}$$$RNA1{StrandType:ss}|RNA2{StrandType:as}$” registered a target mRNA knockdown of 42%.

“RNA1{[hna](G)p.[hna](A)p.[hna](C)p.r(G)p.r(U)p.r(A)p.r(A)p.r(A)p.r(C)p.r(G)p.r(G)p.r(C)p.r(C)p.r(A)p.r(C)p.r(A)p.r(A)p.[hna](G)p.[hna](U)p.[hna](U)p.d(T)}|RNA2{r(A)p.r(C)p.[hna](U)p.r(U)p.r(G)p.r(U)p.r(G)p.r(G)p.r(C)p.r(C)p.r(G)p.r(U)p.r(U)p.r(U)p.r(A)p.r(C)p.r(G)p.[hna](U)p.[hna](C)p.[hna](G)p.d(T)}$$$RNA1{StrandType:ss}|RNA2{StrandType:as}$” returned a target mRNA knockdown of 80.6%.

“RNA1{[fl2r](A)p.r(G)p.[fl2r](A)p.r(C)p.[fl2r](U)p.r(A)p.[fl2r](A)p.r(G)p.[fl2r](C)p.r(C)p.[fl2r](C)p.r(A)p.[fl2r](A)p.r(A)p.[fl2r](A)p.r(G)p.[fl2r](G)p.r(G)p.[fl2r](C)p.r(T)p.r(T)}|RNA2{r(G)p.r(C)p.r(C)p.r(C)p.r(U)p.r(U)p.r(U)p.r(U)p.r(G)p.r(G)p.r(G)p.r(C)p.r(U)p.r(U)p.r(A)p.r(G)p.r(U)p.r(C)p.r(U)p.r(T)p.r(T)}$$$RNA1{StrandType:ss}|RNA2{StrandType:as}$” showed a target mRNA knockdown of 26%.

In turn, “RNA1{r(C)p.r(G)p.r(G)p.r(A)p.r(U)p.r(C)p.m(U)p.r(A)p.r(C)p.r(A)p.r(C)p.r(C)p.r(U)p.r(U)p.r(C)p.m(A)p.r(A)p.r(G)p.r(A)p.r(T)p.r(T)}|RNA2{r(U)p.r(C)p.r(U)p.m(U)p.r(G)p.r(A)p.r(A)p.r(G)p.r(G)p.m(U)p.r(G)p.m(U)p.r(A)p.r(G)p.r(A)p.r(U)p.r(C)p.r(C)p.r(G)p.r(T)p.r(T)}$$$RNA1{StrandType:ss}|RNA2{StrandType:as}$” gave a target mRNA knockdown of 42%.

In turn, “RNA1{r(U)p.r(U)p.r(C)p.[fl2r](U)p.r(A)p.r(A)p.r(C)p.r(C)p.r(G)p.r(G)p.r(G)p.r(C)p.r(A)p.r(G)p.r(C)p.r(U)p.r(U)p.r(C)p.r(U)p.r(T)p.r(T)}|RNA2{r(A)p.r(G)p.r(A)p.r(A)p.r(G)p.r(C)p.r(U)p.r(G)p.r(C)p.r(C)p.r(C)p.r(G)p.r(G)p.r(U)p.[fl2r](U)p.r(A)p.r(G)p.r(A)p.r(A)p.r(T)p.r(T)}$$$RNA1{StrandType:ss}|RNA2{StrandType:as}$” showed a target mRNA knockdown of 72%.
